# Test results published in US20250011299A1, “PYRIDAZINYL AMINO DERIVATIVES AS ALK5 INHIBITORS” (CHIESI FARMACEUTICI S.P.A., priority 2021, published 2025).
# Target: T1, human ALK5 (Homo sapiens, UniProt P36897)
# T1 construct: human ALK5 (recombinant TGF β1 N-term GST-tagged, 80-end); GST (N); purchased
# T1 sequence (P36897 80-503 limits assumed): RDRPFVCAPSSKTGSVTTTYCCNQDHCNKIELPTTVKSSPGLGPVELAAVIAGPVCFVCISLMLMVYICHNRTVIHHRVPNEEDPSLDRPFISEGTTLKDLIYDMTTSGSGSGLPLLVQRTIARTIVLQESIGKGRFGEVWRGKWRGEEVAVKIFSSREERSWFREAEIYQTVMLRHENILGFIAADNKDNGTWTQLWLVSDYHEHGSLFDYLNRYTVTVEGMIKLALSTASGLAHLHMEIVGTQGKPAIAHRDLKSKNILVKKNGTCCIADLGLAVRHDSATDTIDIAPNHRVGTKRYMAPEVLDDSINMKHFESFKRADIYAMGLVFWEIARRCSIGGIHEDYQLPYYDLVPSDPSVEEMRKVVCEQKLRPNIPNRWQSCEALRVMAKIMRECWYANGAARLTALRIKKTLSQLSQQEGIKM
# Assay: ADP-GLO Kinases assay of ALK5 enzymatic activity
# Format: biochemical
# Conditions: purified recombinant human ALK5, TGFβ1 peptide substrate, pIC50 converted to pKi by Cheng-Prusoff, high ATP protocol (15 μM) for very potent compounds, 25° C.
# Method: The enzymatic activity of compounds of the present invention was monitored measuring the formation of ADP using the ADP-GLO Kinases assay. Following the incubation of the purified enzyme, a substrate and ATP, the produced ADP was converted into ATP, which in turn was converted into light by Ultra-Glo Luciferase. The luminescent signal positively correlated with ADP amount and kinase activity. […] Compound and ALK5 kinase were mixed and incubated for 15 mins. […] After an incubation of 120 min, the reaction was stopped, and ADP production detected with ADP-Glo kit according to manufacturer's indications. […] After an incubation of 60 min, the kinase reaction was stopped, and ADP production detected with ADP-Glo kit according to manufacturer's indications. All reaction and incubation steps were performed at 25° C. and the assays were performed in 384-well format and validated using a selection of reference compounds tested in 11-point concentration-response curve. […] Results were expressed as pIC50 (negative logarithm of IC50) and subsequently converted to pKi (negative logarithm of […]) using the Cheng-Prusoff equation. The higher the value of pKi, the greater the inhibition of ALK5 activity.
row,SMILES,Ki [nM]
1,"Nc1cc(Nc2cc(-c3cc(Cl)ccc3F)nnc2OCC(F)(F)F)ccn1 [Example 49, N4-[6-(5-chloro-2-fluorophenyl)-3-(2,2,2-trifluoroethoxy)pyridazin-4-yl]pyridine-2,4-diamine]",0.398 to 3.16
2,"CN1CCN(CCOc2ccc3c(Nc4cc(-c5cc(Cl)ccc5F)nnc4OCCNS(C)(=O)=O)ccnc3c2)CC1 [Example 6, N-(2-{[6-(5-chloro-2-fluorophenyl)-4-({7-[2-(4-methylpiperazin-1-yl)ethoxy]quinolin-4-yl}amino)pyridazin-3-yl]oxy}ethyl)methanesulfonamide]",≤ 0.1
3,"CN1CCN([C@H]2C[C@@H](C(=O)Nc3cc(Nc4cc(-c5cc(Cl)ccc5F)nnc4SC(C)(C)CO)ccn3)C2)CC1 [Example 94, Cis N-(4-{[6-(5-chloro-2-fluorophenyl)-3-[(1-hydroxy-2-methylpropan-2-yl)sulfanyl]pyridazin-4-yl]amino}pyridin-2-yl)-3-(4-methylpiperazin-1-yl)cyclobutane-1-carboxamide]",≤ 0.1
4,"Cc1ccc(F)c(-c2cc(Nc3ccnc(NC(=O)CCN4CCN(C)CC4)c3)c(OCC(F)(F)F)nn2)n1 [Example 68, N-(4-{[6-(3-fluoro-6-methylpyridin-2-yl)-3-(2,2,2-trifluoroethoxy)pyridazin-4-yl]amino}pyridin-2-yl)-3-(4-methylpiperazin-1-yl)propanamide]",0.126 to 0.316
5,"CN1CCN([C@H]2C[C@@H](C(=O)Nc3cc(Nc4cc(-c5cc(Cl)ccc5F)nnc4SCCO)ncn3)C2)CC1 [Example 91, Cis N-(6-{[6-(5-chloro-2-fluorophenyl)-3-[(2-hydroxyethyl)sulfanyl]pyridazin-4-yl]amino}pyrimidin-4-yl)-3-(4-methylpiperazin-1-yl)cyclobutane-1-carboxamide]",0.126 to 0.316
6,"COc1ccc2c(Nc3cc(-c4cc(Cl)ccc4F)nnc3OCCN(C)C)ccnc2c1 [Example 39, N-[6-(5-chloro-2-fluorophenyl)-3-[2-(dimethylamino)ethoxy]pyridazin-4-yl]-7-methoxyquinolin-4-amine]",0.398 to 3.16
7,"CN1CCN([C@H]2C[C@@H](C(=O)Nc3cc(Nc4cc(-c5cc(Cl)ccc5F)nnc4SCCO)ccn3)C2)CC1 [Example 83, Cis N-(4-{[6-(5-chloro-2-fluorophenyl)-3-[(2-hydroxyethyl)sulfanyl]pyridazin-4-yl]amino}pyridin-2-yl)-3-(4-methylpiperazin-1-yl)cyclobutane-1-carboxamide]",≤ 0.1
8,"COC(=O)c1cc2c(Nc3cc(-c4cc(Cl)ccc4F)nnc3OCCC[N+](C)(C)C)ccnc2[nH]1 [Example 11, (3-{[6-(5-chloro-2-fluorophenyl)-4-{[2-(methoxycarbonyl)-1H-pyrrolo[2,3-b]pyridin-4-yl]amino}pyridazin-3-yl]oxy}propyl)trimethylazanium chloride]",0.398 to 3.16
9,"CN1CCN(CCC(=O)Nc2cc(Nc3cc(-c4cc(Cl)ccc4F)nnc3O[C@H]3C[C@@H](CO)C3)ccn2)CC1 [Example 80, N-(4-{[6-(5-chloro-2-fluorophenyl)-3-[3-(hydroxymethyl)cyclobutoxy]pyridazin-4-yl]amino}pyridin-2-yl)-3-(4-methylpiperazin-1-yl)propanamide]",≤ 0.1

# Continued, values first:
row,Ki [nM],SMILES
1,≤ 0.1,"CN1CCN(CCC(=O)Nc2cc(Nc3cc(-c4cc(Cl)ccc4F)nnc3N(C)C3CCOC3)ccn2)CC1 (racemic) [Example 105, N-(4-{[6-(5-chloro-2-fluorophenyl)-3-[methyl(oxolan-3-yl)amino]pyridazin-4-yl]amino}pyridin-2-yl)-3-(4-methylpiperazin-1-yl)propanamide]"
2,≤ 0.1,"COCC1(CN(C)c2nnc(-c3cc(Cl)ccc3F)cc2Nc2ccnc(NC(=O)CCN3CCN(C)CC3)c2)CCOC1=O (single isomer, unassigned) [Example 201, N-(4-{[6-(5-chloro-2-fluorophenyl)-3-({[3-(methoxymethyl)-2-oxooxolan-3-yl]methyl}(methyl)amino)pyridazin-4-yl]amino}pyridin-2-yl)-3-(4-methylpiperazin-1-yl)propanamide]"
3,0.126 to 0.316,"COC(=O)C1CN(CC(=O)Nc2cc(Nc3cc(-c4cc(Cl)ccc4F)nnc3OCCN(C)C)ccn2)CCN1C (centres unmarked) [Example 12, methyl 4-{[(4-{[6-(5-chloro-2-fluorophenyl)-3-[2-(dimethylamino)ethoxy]pyridazin-4-yl]amino}pyridin-2-yl)carbamoyl]methyl}-1-methylpiperazine-2-carboxylate]"
4,0.126 to 0.316,"CN1CCN(CCC(=O)Nc2cc(Nc3cc(-c4cc(Cl)ccc4F)nnc3SCC3(C)CCOC3=O)ccn2)CC1 (centres unmarked) [Example 197, N-(4-{[6-(5-chloro-2-fluorophenyl)-3-{[(3-methyl-2-oxooxolan-3-yl)methyl]sulfanyl}pyridazin-4-yl]amino}pyridin-2-yl)-3-(4-methylpiperazin-1-yl)propanamide]"
5,≤ 0.1,"CN1CCN(CCC(=O)Nc2cc(Nc3cc(-c4cc(Cl)ccc4F)nnc3N(C)[C@@H]3CCOC3)ccn2)CC1 (single isomer, unassigned) [Example 107, N-(4-{[6-(5-chloro-2-fluorophenyl)-3-[methyl(oxolan-3-yl)amino]pyridazin-4-yl]amino}pyridin-2-yl)-3-(4-methylpiperazin-1-yl)propanamide]"
6,≤ 0.1,"CN1CCN(CCC(=O)Nc2cc(Nc3cc(-c4cc(Cl)ccc4F)nnc3N(C)C[C@@]3(C)CCOC3=O)ccn2)CC1 (racemic) [Example 127, N-(4-{[6-(5-chloro-2-fluorophenyl)-3-{methyl[(3-methyl-2-oxooxolan-3-yl)methyl]amino}pyridazin-4-yl]amino}pyridin-2-yl)-3-(4-methylpiperazin-1-yl)propanamide]"
7,≤ 0.1,"CN1CCN([C@H]2C[C@@H](C(=O)Nc3cc(Nc4cc(-c5cc(Cl)ccc5F)nnc4N(C)C)ccn3)C2)CC1 [Example 97, cis N-(4-{[6-(5-chloro-2-fluorophenyl)-3-(dimethylamino)pyridazin-4-yl]amino}pyridin-2-yl)-3-(4-methylpiperazin-1-yl)cyclobutane-1-carboxamide]"
8,0.126 to 0.316,"COC(=O)[C@H]1CN(c2nnc(-c3cc(Cl)ccc3F)cc2Nc2ccnc(NC(=O)CCN3CCN(C)CC3)c2)CCO1 (stereo in doubt) [Example 133, methyl 4-[6-(5-chloro-2-fluorophenyl)-4-({2-[3-(4-methylpiperazin-1-yl)propanamido]pyridin-4-yl}amino)pyridazin-3-yl]morpholine-2-carboxylate]"
9,≤ 0.1,"CSc1nnc(-c2cc(Cl)ccc2F)cc1Nc1ccnc(NC(=O)CCN2CCN(CCN)CC2)c1 [Example 20, 3-[4-(2-aminoethyl)piperazin-1-yl]-N-(4-{[6-(5-chloro-2-fluorophenyl)-3-(methylsulfanyl)pyridazin-4-yl]amino}pyridin-2-yl)propanamide]"
10,0.398 to 3.16,"CN1CCN(CCC(=O)Nc2cc(Nc3cc(-c4cc(Cl)ccc4F)nnc3N3CCC3C(=O)O)ccn2)CC1 (centres unmarked) [Example 151, ammonium 1-[6-(5-chloro-2-fluorophenyl)-4-({2-[3-(4-methylpiperazin-1-yl)propanamido]pyridin-4-yl}amino)pyridazin-3-yl]azetidine-2-carboxylate]"
11,≤ 0.1,"Cc1oc(=O)oc1CSc1nnc(-c2cc(Cl)ccc2F)cc1Nc1ccnc(NC(=O)CCN2CCN(C)CC2)c1 [Example 190, N-(4-{[6-(5-chloro-2-fluorophenyl)-3-{[(5-methyl-2-oxo-2H-1,3-dioxol-4-yl)methyl]sulfanyl}pyridazin-4-yl]amino}pyridin-2-yl)-3-(4-methylpiperazin-1-yl)propanamide]"
12,0.126 to 0.316,"COC(=O)C1CN(c2nnc(-c3cc(Cl)ccc3F)cc2Nc2ccnc(NC(=O)CCN3CCN(C)CC3)c2)C1 [Example 98, methyl 1-[6-(5-chloro-2-fluorophenyl)-4-({2-[3-(4-methylpiperazin-1-yl)propanamido]pyridin-4-yl}amino)pyridazin-3-yl]azetidine-3-carboxylate]"
13,≤ 0.1,"COC(=O)NCCN1CCN(CCC(=O)Nc2cc(Nc3cc(-c4cc(Cl)ccc4F)nnc3SC)ccn2)CC1 [Example 21, methyl N-[2-(4-{2-[(4-{[6-(5-chloro-2-fluorophenyl)-3-(methylsulfanyl)pyridazin-4-yl]amino}pyridin-2-yl)carbamoyl]ethyl}piperazin-1-yl)ethyl]carbamate]"
14,≤ 0.1,"CN1CCN(CCC(=O)Nc2cc(Nc3cc(-c4cc(Cl)ccc4F)nnc3OC[C@H]3C[C@@H](O)C3)ccn2)CC1 [Example 71, Cis N-(4-{[6-(5-chloro-2-fluorophenyl)-3-[(3-hydroxycyclobutyl)methoxy]pyridazin-4-yl]amino}pyridin-2-yl)-3-(4-methylpiperazin-1-yl)propanamide]"
